Converted amounts (≈) assume the structure as drawn.
How the values were obtained:
[1] = tested on: S. aureus Met-R multiresistant strains; experiment: MIC determination (NCCLS broth microdilution), methicillin-resistant multiresistant S. aureus strains; type: cell-based, Staphylococcus aureus; conditions: for MIC: antibiotype Oxa, Ery
Procedure, shortened: (§1)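 NCCLS broth microdilution in cation-supplemented Mueller-Hinton broth, final inoculum 5×10^5 from exponential-phase bacteria; 2% NaCl added for methicillin testing. MIC taken as lowest concentration preventing visible growth after 18–24 h at 37 °C, with S. aureus ATCC 29213 as QC strain.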

[2] = tested on: S. aureus vancomycin-intermediates (VISA) Met-R strains; experiment: MIC determination (NCCLS broth microdilution), VISA Met-R strains; type: cell-based, Staphylococcus aureus
Procedure, shortened: as §1

CN[C@H](CC(C)C)C(=O)N[C@H]1C(=O)N[C@@H](CC(N)=O)C(=O)N[C@H]2C(=O)N[C@H]3C(=O)N[C@H](C(=O)N[C@H](C(=O)O)c4cc(O)cc(O)c4-c4cc3ccc4O)[C@H](O)c3ccc(c(Cl)c3)Oc3cc2cc(c3O[C@@H]2O[C@H](CO)[C@@H](O)[C@H](O)[C@H]2O[C@H]2C[C@](C)(N)[C@H](O)[C@H](C)O2)Oc2ccc(cc2Cl)[C@H]1O [Vancomicine, vancomycine]
MIC Range ([1]; S. aureus (50) Met-R): 0,5-2 mg/l | % susceptible at breakpoint ([1]; S. aureus (50) Met-R, NCCLS (1999) breakpoints): 100% | MIC50 ([1]; Staphylococcus aureus): 1 µg/mL (≈ 0.69 µM) | MIC90 ([1]; Staphylococcus aureus): 1 µg/mL (≈ 0.69 µM) | MIC ([1]; Staphylococcus aureus, Strain 1, Cip, Clin, Gm): 0.5 µg/mL (≈ 0.345 µM) | MIC ([1]; Staphylococcus aureus, Strain 2, Clin, Fos): 1 µg/mL (≈ 0.69 µM) | MIC ([1]; Staphylococcus aureus, Strain 3, Cip, Clin, Gm): 1 µg/mL (≈ 0.69 µM) | MIC ([1]; Staphylococcus aureus, Strain 4, Cip, Gm): 1 µg/mL (≈ 0.69 µM) | MIC ([1]; Staphylococcus aureus, Strain 5, Cip, Clin): 1 µg/mL (≈ 0.69 µM) | MIC ([1]; Staphylococcus aureus, Strain 6, Clin, Gm): 1 µg/mL (≈ 0.69 µM) | MIC ([1]; Staphylococcus aureus, Strain 7, Cip, Gm): 0.5 µg/mL (≈ 0.345 µM) | MIC ([1]; Staphylococcus aureus, Strain 8, Cip, Clin): 1 µg/mL (≈ 0.69 µM) | MIC ([1]; Staphylococcus aureus, Strain 9, Cip, Clin, Gm): 1 µg/mL (≈ 0.69 µM) | MIC ([1]; Staphylococcus aureus, Strain 10, Cip, Clin, Gm): 1 µg/mL (≈ 0.69 µM) | MIC ([1]; Staphylococcus aureus, Strain 11, Clin, Rif): 1 µg/mL (≈ 0.69 µM) | MIC ([1]; Staphylococcus aureus, Strain 12, Cip, Clin): 1 µg/mL (≈ 0.69 µM) | MIC ([1]; Staphylococcus aureus, Strain 13, Cip, Clin): 1 µg/mL (≈ 0.69 µM) | MIC ([1]; Staphylococcus aureus, Strain 14, Clin, Cip): 1 µg/mL (≈ 0.69 µM) | MIC ([1]; Staphylococcus aureus, Strain 15, Cip, Clin, Gm): 0.5 µg/mL (≈ 0.345 µM) | MIC ([1]; Staphylococcus aureus, Strain 16, Cip, Clin): 1 µg/mL (≈ 0.69 µM) | MIC ([1]; Staphylococcus aureus, Strain 17, Cip, Clin): 0.5 µg/mL (≈ 0.345 µM) | MIC ([1]; Staphylococcus aureus, Strain 18, Cip, Clin, Gm): 1 µg/mL (≈ 0.69 µM) | MIC ([1]; Staphylococcus aureus, Strain 19, Cip, Clin, Gm): 1 µg/mL (≈ 0.69 µM) | MIC ([1]; Staphylococcus aureus, Strain 20, Cip, Clin, Gm): 1 µg/mL (≈ 0.69 µM) | MIC ([1]; Staphylococcus aureus, Strain 21, Cip, Clin, Gm): 1 µg/mL (≈ 0.69 µM) | MIC ([1]; Staphylococcus aureus, Strain 22, Cip, Clin): 0.5 µg/mL (≈ 0.345 µM) | MIC ([1]; Staphylococcus aureus, Strain 23, Cip, Clin, Gm): 1 µg/mL (≈ 0.69 µM) | MIC ([1]; Staphylococcus aureus, Strain 24, Cip, Clin, Gm): 1 µg/mL (≈ 0.69 µM) | MIC ([1]; Staphylococcus aureus, Strain 25, Cip, Clin, Gm): 1 µg/mL (≈ 0.69 µM) | MIC ([1]; Staphylococcus aureus, Strain 26, Cip, Clin, Fos, Gm): 1 µg/mL (≈ 0.69 µM) | MIC ([1]; Staphylococcus aureus, Strain 27, Cip, Clin, Fos, Gm): 1 µg/mL (≈ 0.69 µM) | MIC ([1]; Staphylococcus aureus, Strain 28, Cip, Clin, Gm): 1 µg/mL (≈ 0.69 µM) | MIC ([1]; Staphylococcus aureus, Strain 29, Clin, Fos): 1 µg/mL (≈ 0.69 µM) | MIC ([1]; Staphylococcus aureus, Strain 30, Cip, Clin, Gm, SXT, Dox): 0.5 µg/mL (≈ 0.345 µM) | MIC ([1]; Staphylococcus aureus, Strain 31, Cip, Clin, Fox, Gm): 1 µg/mL (≈ 0.69 µM) | MIC ([1]; Staphylococcus aureus, Strain 32, Cip, Clin, Gm, SXT, Rif): 1 µg/mL (≈ 0.69 µM) | MIC ([1]; Staphylococcus aureus, Strain 33, Cip, Clin, Gm): 0.5 µg/mL (≈ 0.345 µM) | MIC ([1]; Staphylococcus aureus, Strain 34, Cip, Clin, Gm): 0.5 µg/mL (≈ 0.345 µM) | MIC ([1]; Staphylococcus aureus, Strain 35, Cip, Clin, Gm): 1 µg/mL (≈ 0.69 µM) | MIC ([1]; Staphylococcus aureus, Strain 36, Cip, Clin, Fos): 0.5 µg/mL (≈ 0.345 µM) | MIC ([1]; Staphylococcus aureus, Strain 37, Cip, Clin, Fos, Gm): 0.5 µg/mL (≈ 0.345 µM) | MIC ([1]; Staphylococcus aureus, Strain 38, Cip, Gm): 0.5 µg/mL (≈ 0.345 µM) | MIC ([1]; Staphylococcus aureus, Strain 39, Cip, Clin, Fos, Gm): 0.5 µg/mL (≈ 0.345 µM) | MIC ([1]; Staphylococcus aureus, Strain 40, Cip, Clin, Gm): 0.5 µg/mL (≈ 0.345 µM) | MIC ([1]; Staphylococcus aureus, Strain 41, Cip, Clin): 0.5 µg/mL (≈ 0.345 µM) | MIC ([1]; Staphylococcus aureus, Strain 42, Cip, Clin, Gm): 0.5 µg/mL (≈ 0.345 µM) | MIC ([1]; Staphylococcus aureus, Strain 43, Cip, Clin, Gm): 0.5 µg/mL (≈ 0.345 µM) | MIC ([1]; Staphylococcus aureus, Strain 44, Cip, Clin, Gm, Rif, Dox): 1 µg/mL (≈ 0.69 µM) | MIC ([1]; Staphylococcus aureus, Strain 45, Cip, Clin, Gm, Rif, Dox, Fos): 1 µg/mL (≈ 0.69 µM) | MIC ([1]; Staphylococcus aureus, Strain 46, Clin, Fos): 0.5 µg/mL (≈ 0.345 µM) | MIC ([1]; Staphylococcus aureus, Strain 47, Cip, Clin, Gm): 0.5 µg/mL (≈ 0.345 µM) | MIC ([1]; Staphylococcus aureus, Strain 48, Cip, Clin): 2 µg/mL (≈ 1.38 µM) | MIC ([1]; Staphylococcus aureus, Strain 49, Cip, Gm): 1 µg/mL (≈ 0.69 µM) | MIC ([1]; Staphylococcus aureus, Strain 50, Cip, Clin, Gm, Rif, Dox): 1 µg/mL (≈ 0.69 µM) | MIC ([2]; Staphylococcus aureus, VISA): 8 µg/mL (≈ 5.52 µM) | MIC ([2]; Strain 52 VISA, antibiotype Oxa, Cip, Clin, Ery): 8 µg/mL (≈ 5.52 µM) | MIC Range ([2]; VISA (2) Met-R): 8 µg/mL (≈ 5.52 µM)
